Earlier results, collected in patent publication US20050169997A1, “Method for preparing resinates” (priority 2002, published 2005).

- solubility of indomethacin in water: 14 ppm
Structure (SMILES): COc1ccc2c(c1)c(CC(=O)O)c(C)n2C(=O)c1ccc(Cl)cc1 [indomethacin]
